Here are results for eleven compounds from patent publication US4946964A, “Photographic compounds” (Polaroid Corporation, priority 1987, dated 1990).

Series [1] is described as follows: Arrhenius activation energy (Ea) of release of the PHOTO moiety. The format is physicochemical. Conditions: log of observed rate constant vs 1/T (° K.). The protocol: The rate at which the release reaction increases with temperature is a function of the activation energy. For example, for an increase in temperature from 20° C. to 30° C., it hs been calculated that the reaction rate will increase by a factor of 2 when Ea is 12.2, by a factor of about 3 when Ea is 19.3, by a factor of about 4 when Ea is 24.4 and by a factor of about 5 when Ea is 28.3. […] Typically, for such release reactions with other compounds, when the room temperature release rate is relatively fast, the activation energy tends to be about 10. Accordingly, it is possible to select, according to the invention, for a particular photographic system a compound which has a desired release rate at room temperature, a much slower release rate at lower temperatures and a much higher release rate at higher temperatures.
The Arrhenius activation energy (Ea) was calculated by plotting the log of the observed rate constant vs 1/T (° K.) for each compound.

A short description of series [2]: release kinetics: t1/2 for cleavage with release of the PHOTO moiety in alkaline solution. The format is physicochemical. Particulars: 1×10^-4 molar, 30% acetonitrile/0.25N aqueous potassium hydroxide, 22°+0.1° C., 100 µM. From the text:
The rate of release of the PHOTO moiety is dependent upon a number of factors. […] The release rate is also dependent upon the hydroxyl ion concentration of the alkaline medium. […] The rate of release is also temperature dependent, that is, the rate increases as the temperature at which processing of the film unit is effected increases. Thus, where PHOTO is a photographic reagent residue for example, the compounds which are utilized according to the invention can provide more uniform sensitometry for the film units of the invention over a wide temperature range of processing. In other words, the sensitometry of such film units can be less temperature dependent than would otherwise be the case.
The release kinetics of the compounds of the invention vary over a wide range. The t1/2 times in solution, i.e., the time required for one-half of the material to undergo cleavage with release of the PHOTO moiety, for some of the compounds illustrated above are shown in Table I. The values were obtained using 1×10^-4 molar concentrations in 30% acetonitrile/0.25N aqueous potassium hydroxide solution at a temperature of 22°+0.1° C.

`ON=C(CSc1nnnn1-c1ccc(O)cc1)CSc1nnnn1-c1ccc(O)cc1` [Compound I]: the “Arrhenius activation energy (Ea)” value in series [1] stood at 21.8 kcal/mol. In series [2], this compound yielded a t1/2 of 51.1 s. As for `ON=C(CSc1nnnn1-c1ccccc1)CSc1nnnn1-c1ccccc1` [III], the t1/2 in series [2] was determined as 8.9 s. Consider `CC(CSc1nnnn1-c1ccccc1)=NO` [IX], for which the “Arrhenius activation energy (Ea)” value in series [1] was 26.5 kcal/mol. Moreover, in series [2], the t1/2 stood at 22.5 s.

As for `ON=CCSc1nnnn1-c1ccccc1` [VIII], the t1/2 in series [2] was determined as 49.1 s; in series [2] (syn isomer), 1020.0 s. `ON=C(CSc1nnnn1-c1ccccc1)c1ccccc1` [VII]: in series [2], the t1/2 lay in the range of 4 to 6 s. On the same count and under the same terms, in the case of `CC(CSc1nnnn1-c1ccc(C(C)=NO)cc1)=NO` [VI] it was 28.9 s. Compound `CC(CSc1nnnn1-c1ccc(O)cc1)=NO` [V] displayed a t1/2 in series [2] of 40.5 s. Still for that read-out and setting: in the case of `NC(CSc1nnnn1-c1ccccc1)=NO` [XIII] it was 546.0 s. Same read-out and setting: to `Cc1ccc(S(=O)(=O)NN=C(CSc2nnnn2-c2ccccc2)c2ccccc2)cc1` [XII] belongs 165.0 s; to `CS(=O)(=O)Nc1ccc(C(CSc2nnnn2-c2ccccc2)=NO)cc1` [XI], 7.6 s. With `COc1ccc(C(CSc2nnnn2-c2ccccc2)=NO)cc1` [X], the “Arrhenius activation energy (Ea)” value in series [1] was 21.9 kcal/mol. In series [2], this compound displayed a t1/2 of 4.3 s.
